Like-named read-outs stand apart in the source and are kept apart here.

Usually inhibition stands for the percentage by which the read-out fell short of the control. Broadly, the mortality is the share of the test organisms that died.

In one data set the test system is cyst nematode. Description: Cyst Nematode Test. It is filed as in vivo. As to conditions: Table 6; rate 5 ppm; read-out: Percent Control. Here is the method:
Compounds of this invention were tested as follows for nematicidal and anthelmintic activity as dust formulations (initial and residual activity) and as acetone/water formulations (systemic activity). The formulations are described above.
The procedures was substantially the same as described in the stunt nematode test except soybean seedlings were used. "Percent Control" (Table 6 appended) is as defined in the stunt nematode test results.

The next data set has as its system lesion nematode. The data set is described as follows: Lesion Nematode Test. It is filed as in vivo. The settings on record: read-out: Percent Control. An outline of the steps: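 Run as the stunt nematode test but on pea seedlings; compounds applied as dust formulations (initial and residual activity) or acetone/water formulations (systemic activity), with untreated samples as reference. Percent control derived by formula.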

The test system of data set [1] is cucumber or tomato seedling. The data set is described as follows: Phytotoxicity noted in Soil Mobility test. Format: in vivo. Details: key: *: Some phytotoxicity. As to conditions: Table 7a, 5% dust, 5 ppm. The text has this:
The ability of nematicidal compounds of the invention to move through nematode-infested soil […] infested soil, and subsequently eluting the soil with 15 cm of water (equivalent to 15 cm of rainfall) into a series of two or more pots of untreated, but nematode-infested, soil. Specifically, the pots were 8 cm diameter plastic pots containing a 10 cm^3 layer of sand over a coarse grade filter paper disc. Sufficient soil was placed over the sand to fill the pots, and a second filter paper disc was placed over the soil. Each test compound-treated pot was nested over a series of two or more pots containing untreated, but nematode-infested soil, also containing sand filter paper discs as described for the treated soil pots. Fifteen cm of water was slowly dripped into the top pots and the pots were allowed to drain for 16-18 hours to remove excess water. The top filter of each pot was then removed and the pots were planted with a cucumber or tomato seedling. […] "Knot Index" and "Percent Control" are as defined in the initial root-knot nematode tests above.

Data set [2] concerns root-knot nematode. The data set is described as follows: Systemic Activity (basipetal, foliar spray) against root-knot nematode. The settings on record: 336 h, read-out: Percent Control; for pest or weed control at 2000 ppm: Table 8, rate 2000 ppm. It is filed as in vivo, Meloidogyne incognita. In outline: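 Tomato plants at 4-6 true leaves were foliar-sprayed with compound in water/acetone, soil covered, then kept 3 days at 25° C before soil inoculation with nematodes. After about two weeks, root galling versus untreated controls was scored as Knot Index and Percent Control.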

For data set [3], the system named is root-knot nematode (Meloidogyne incognita). Description: Initial Root-Knot Nematicidal Activity. It is filed as in vivo. The settings on record: 336 h, read-out: Percent Control; for pest or weed control at 0.078 ppm: Table 2, Application Rate 0.078 ppm; for pest or weed control at 0.156 ppm: Table 2, Application Rate 0.156 ppm; for pest or weed control at 2.5 ppm: Table 2, Application Rate 2.5 ppm; for pest or weed control at 0.312 ppm: Table 2, Application Rate 0.312 ppm. In outline: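 Compound incorporated into Meloidogyne incognita-infested soil at 10 ppm to 0.078 ppm, then planted with tomato or cucumber seedlings. Root galling scored two weeks after planting as a knot index and converted to percent control, given as averages.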

In another data set the test system is stunt nematode. Description: Stunt Nematode Test. It is filed as in vivo.
Data set [4] deals with root-knot nematode. The data set is described as follows: Soil Mobility against root-knot nematode. Format: in vivo, Meloidogyne incognita. The settings on record: 336 h, Table 7a, 5% dust, 5 ppm, read-out: Percent Control. An outline of the steps:
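Soil mobility of the nematicidal test material was evaluated by placing treated, nematode-infested soil in 8 cm plastic pots stacked above two or more pots of untreated infested soil, each containing a 10 cm^3 sand layer and filter paper discs. Fifteen cm of water was dripped through, pots drained 16-18 hours, then were planted with cucumber or tomato seedlings and scored for Percent Control.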

Data set [5] has as its system root-knot nematode. Description: Residual Root-Knot Nematicidal Activity. It is filed as in vivo, Meloidogyne incognita. The settings on record: Table 3a, 5% dust, 5 ppm, read-out: Percent Control. An outline of the steps: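 Soil received 5% dust formulation at 5 and 10 ppm test compound and was held in a greenhouse, then infested with root-knot nematode eggs and larvae at 1, 2 and 4 weeks post-treatment. Cucumber or tomato seedlings were planted and scored about two weeks after infestation for Knot Index and Percent Control.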

The subject of another data set is corn seedling. Description: Phytotoxicity noted in Stunt Nematode Test. Details: key: *: Some phytotoxicity. Format: in vivo. As to conditions: Table 4a; rate 5 ppm. The text has this: The procedure was substantially the same as in the initial root-knot nematode tests described above except that rates of application of formulated compound were 2.5 and 5 ppm in soil containing a corn seedling, with subsequent inoculation of the soil with combined larvae and adult stunt nematodes. The samples were evaulated approximately four weeks after infestation. The results (Tables 4 and 4a appended) indicate good control at the test application rates as compared with untreated samples where no control was observed. "Percent control" means the difference between average population counts between untreated and treated samples, divided by average population count of untreated sample, multiplied by 100.

Another data set deals with Caenorhabditis elegans. Description: C. Elegans Nematode Screening Test and Evaluation (in-vitro). The settings on record: Caenorhabditis elegans. An outline of the steps: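 Worms (10-15 per well) in buffer with E. coli food, ampicillin and mycostatin; compound added in DMSO, 2-3 replicates per rate. Incubated 5-6 days at 20° C. Population development scored against untreated wells, noting effects such as reduced egg hatch or molting disruption.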

Where [6] appears, read: Table 2, Application Rate 0.625 ppm.
The mark [7] stands for this setting: Table 2, Application Rate 1.25 ppm.
The mark [8] stands for this setting: 672 h, Table 4a; rate 5 ppm; read-out: Percent Control.
The mark [9] stands for this setting: 168 h, inoculation 1 week post-treatment.
The mark [10] stands for this setting: 336 h, inoculation 2 weeks post-treatment.
Setting [11] is: 672 h, inoculation 4 weeks post-treatment.

As to `CCCc1nnc(SCCC(F)=C(F)F)o1` [Compound 41, 2-propyl-5-(3,4,4-trifluoro-3-butenylthio)-1,3,4-oxadiazole], the pest or weed control at 5 ppm was determined as 0% with cyst nematode; 29% in the data set on stunt nematode (setting [8]); 8% in the data set with root-knot nematode [4] (BOTTOM container); 95% in the data set on root-knot nematode [4] (MIDDLE container); 97% in the data set on root-knot nematode [4] (TOP container); 97% with root-knot nematode [5] (setting [9]). The results for the pest or weed control at 5 ppm with root-knot nematode [5] (setting [10]) and in the data set on root-knot nematode [5] (setting [11]) were 63% and 6%, respectively. Further, the pest or weed control at 2.5 ppm in the data set with lesion nematode (Table 5, rate 2.5 ppm) came out at 64%; in data set [3] it was 100%. In addition, the Some phytotoxicity entry in data set [1] (MIDDLE container) and in data set [1] (TOP container) was “*” throughout. In addition, the pest or weed control at 2000 ppm with root-knot nematode [2] worked out at 17%. Moreover, the pest or weed control at 0.078 ppm in [3] turned out to be 31%. Further, the pest or weed control at 0.156 ppm in data set [3] was 84%. For the same molecule, in data set [3] (setting [6]), the pest or weed control at 0.625 ppm was 98%. Moreover, the pest or weed control at 1.25 ppm in [3] (setting [7]) was 100%.

On to `FC(F)=C(F)CCSc1nnc(Cc2ccccc2)o1` [Compound 42, 2-phenylmethyl-5-(3,4,4-trifluoro-3-butenylthio)-1,3,4-oxadiazole], for which the pest or weed control at 5 ppm in the data set on cyst nematode turned out to be 30%; in the data set on stunt nematode (setting [8]) it was 76%; in the data set on stunt nematode (672 h; Table 4a; rate 5 ppm; read-out: Percent Control), 33%; with root-knot nematode [4] (BOTTOM container), 100%; with root-knot nematode [4] (MIDDLE container), 100%; in the data set on root-knot nematode [4] (TOP container), 100%. Also, the pest or weed control at 5 ppm came to 99% in the data set on root-knot nematode [5] (setting [9]), 97% with root-knot nematode [5] (setting [10]) and 0% in the data set on root-knot nematode [5] (setting [11]). For the same molecule, the pest or weed control at 2.5 ppm with lesion nematode (Table 5, rate 2.5 ppm) amounted to 82%; in the data set on lesion nematode, 73%; in data set [3], 100%. Also, the pest or weed control at 0.078 ppm in [3] came to 38%. Besides, the pest or weed control at 0.156 ppm in data set [3] is 50%. Besides, the pest or weed control at 0.312 ppm in [3] was determined as 86%. The pest or weed control at 0.625 ppm in [3] (setting [6]) was 98%. Besides, the pest or weed control at 1.25 ppm in data set [3] (setting [7]) turned out to be 98%. The Some phytotoxicity entry in the data set on corn seedling is recorded as “*”.

Take `FC(F)=C(F)CCSc1nnc(-c2cccc(Cl)c2)o1` [Compound 48, 2-(3-chlorophenyl)-5-(3,4,4-trifluoro-3-butenylthio)-1,3,4-oxadiazole]: the pest or weed control at 5 ppm amounted to 86% in the data set on cyst nematode; 82% in the data set on stunt nematode (setting [8]); 97% in the data set with root-knot nematode [5] (setting [9]); 97% with root-knot nematode [5] (setting [10]); 69% with root-knot nematode [5] (setting [11]). The pest or weed control at 2.5 ppm was 85% in the data set with lesion nematode (Table 5, rate 2.5 ppm) and 98% in data set [3]. In data set [1] (TOP container), the Some phytotoxicity result is given as “*”. In the data set on root-knot nematode [2] (Table 8, rate 2500 ppm), the pest or weed control at 2500 ppm was 33%. In addition, the pest or weed control at 2000 ppm in the data set with root-knot nematode [2] (foliar) amounted to 50%. Moreover, the pest or weed control at 0.078 ppm in [3] is 6%. For the same molecule, in data set [3], the pest or weed control at 0.156 ppm is 38%. In addition, in [3], the pest or weed control at 0.312 ppm amounted to 64%. In addition, the pest or weed control at 0.625 ppm was determined as 78% in [3] (setting [6]) and 87% in [3]. Besides, the pest or weed control at 1.25 ppm in [3] was 95%. Moreover, the inhibition at 5 ppm with Caenorhabditis elegans (Table 9 screen, 5 ppm, read-out: Percent Inhibition of Reproduction) is 100%. Besides, the mortality at 5 ppm with Caenorhabditis elegans (Table 9 screen, 5 ppm, read-out: Percent Mortality) amounted to 88%; with Caenorhabditis elegans (Table 10 evaluation, 5 ppm, read-out: Percent Mortality) it was 100%. In addition, the inhibition at 1.25 ppm in the data set on Caenorhabditis elegans (Table 10 evaluation, 1.25 ppm, read-out: Percent Inhibition of Reproduction) turned out to be 17%. Besides, the mortality at 1.25 ppm in the data set on Caenorhabditis elegans (Table 10 evaluation, 1.25 ppm, read-out: Percent Mortality) came out at 0%. In the data set with Caenorhabditis elegans (Table 10 evaluation, 2.5 ppm, read-out: Percent Inhibition of Reproduction), the inhibition at 2.5 ppm was 25%. Further, in the data set with Caenorhabditis elegans (Table 10 evaluation, 2.5 ppm, read-out: Percent Mortality), the mortality at 2.5 ppm worked out at 0%.

(Values after patent US4952580A, “Pesticidal polyhaloalkene derivatives” (priority 1988, dated 1990).)
